Results taken from PubChem BioAssay AID1918948 (Molecular Pharmacology Branch, DTP, NCI, 2023).

System: K-562 leukemia growth, % test/control
Experiment: Anticancer human tumor K-562 cell line growth inhibition;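 also: spheroids exposed to compounds for 7 days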;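 as to viability, T/C: 100% = DMSO vehicle wells and lower values mean fewer viable cells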
Details: spheroids with HUVEC and MSC; for IC50: curve of first compound; for viability, T/C: stronger effect = lower value
Method in brief: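 Multicellular complex spheroids of tumor cells with human endothelial cells (HUVEC) and mesenchymal stem cells; the LSD1 inhibitor iadademstat was combined with standard-of-care or investigational agents. Top concentration at or near clinical Cmax, half-log dilutions; final DMSO ≤0.25%.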

[1] = second compound 0.1 µM, first compound 0.0316 µM
[2] = second compound 0.1 µM, first compound 0.1 µM
[3] = second compound 0.316 µM, first compound 0.0316 µM
[4] = second compound 0.316 µM, first compound 0.1 µM
[5] = second compound 1 µM, first compound 0.0316 µM
[6] = second compound 1 µM, first compound 0.1 µM
[7] = second compound 3.16 µM, first compound 0.0316 µM
[8] = second compound 3.16 µM, first compound 0.1 µM
[9] = second compound 10 µM, first compound 0.0316 µM
[10] = second compound 10 µM, first compound 0.1 µM

CC1(C)CCC(CN2CCN(c3ccc(C(=O)NS(=O)(=O)c4ccc(NCC5CCOCC5)c([N+](=O)[O-])c4)c(Oc4cnc5[nH]ccc5c4)c3)CC2)=C(c2ccc(Cl)cc2)C1 + NC1CCC(NC2CC2c2ccccc2)CC1
IC50 (second compound 0.1 µM): 6.56 µM | IC50 (second compound 0.316 µM): 6.65 µM | IC50 (second compound 1 µM): 6.57 µM | IC50 (second compound 3.16 µM): 6.94 µM | IC50 (second compound 10 µM): 6.52 µM | viability, T/C [1]: 99.8% | viability, T/C [2]: 102% | viability, T/C (second compound 0.1 µM, first compound 0.316 µM): 101% | viability, T/C (second compound 0.1 µM, first compound 1 µM): 104% | viability, T/C (second compound 0.1 µM, first compound 3.16 µM): 109% | viability, T/C (second compound 0.1 µM, first compound 10 µM): 19.1% | viability, T/C [3]: 102% | viability, T/C [4]: 104% | viability, T/C (second compound 0.316 µM, first compound 0.316 µM): 104% | viability, T/C (second compound 0.316 µM, first compound 1 µM): 101% | viability, T/C (second compound 0.316 µM, first compound 3.16 µM): 110% | viability, T/C (second compound 0.316 µM, first compound 10 µM): 20% | viability, T/C [5]: 104% | viability, T/C [6]: 104% | viability, T/C (second compound 1 µM, first compound 0.316 µM): 107% | viability, T/C (second compound 1 µM, first compound 1 µM): 108% | viability, T/C (second compound 1 µM, first compound 3.16 µM): 110% | viability, T/C (second compound 1 µM, first compound 10 µM): 17.6% | viability, T/C [7]: 105% | viability, T/C [8]: 103% | viability, T/C (second compound 3.16 µM, first compound 0.316 µM): 104% | viability, T/C (second compound 3.16 µM, first compound 1 µM): 108% | viability, T/C (second compound 3.16 µM, first compound 3.16 µM): 106% | viability, T/C (second compound 3.16 µM, first compound 10 µM): 24.3% | viability, T/C [9]: 97.6% | viability, T/C [10]: 99.6% | viability, T/C (second compound 10 µM, first compound 0.316 µM): 99.8% | viability, T/C (second compound 10 µM, first compound 1 µM): 101% | viability, T/C (second compound 10 µM, first compound 3.16 µM): 101% | viability, T/C (second compound 10 µM, first compound 10 µM): 20.5%

CCN(c1cc(-c2ccc(CN3CCOCC3)cc2)cc(C(=O)NCc2c(C)cc(C)[nH]c2=O)c1C)C1CCOCC1 + NC1CCC(NC2CC2c2ccccc2)CC1
IC50 (second compound 0.1 µM): > 3 µM | IC50 (second compound 0.316 µM): > 3 µM | IC50 (second compound 1 µM): > 3 µM | IC50 (second compound 3.16 µM): > 3 µM | IC50 (second compound 10 µM): 2.22 µM | viability, T/C (second compound 0.1 µM, first compound 0.00949 µM): 112% | viability, T/C (second compound 0.1 µM, first compound 0.03 µM): 107% | viability, T/C (second compound 0.1 µM, first compound 0.0949 µM): 106% | viability, T/C (second compound 0.1 µM, first compound 0.3 µM): 106% | viability, T/C (second compound 0.1 µM, first compound 0.949 µM): 106% | viability, T/C (second compound 0.1 µM, first compound 3 µM): 98.8% | viability, T/C (second compound 0.316 µM, first compound 0.00949 µM): 112% | viability, T/C (second compound 0.316 µM, first compound 0.03 µM): 109% | viability, T/C (second compound 0.316 µM, first compound 0.0949 µM): 107% | viability, T/C (second compound 0.316 µM, first compound 0.3 µM): 108% | viability, T/C (second compound 0.316 µM, first compound 0.949 µM): 105% | viability, T/C (second compound 0.316 µM, first compound 3 µM): 101% | viability, T/C (second compound 1 µM, first compound 0.00949 µM): 113% | viability, T/C (second compound 1 µM, first compound 0.03 µM): 112% | viability, T/C (second compound 1 µM, first compound 0.0949 µM): 106% | viability, T/C (second compound 1 µM, first compound 0.3 µM): 109% | viability, T/C (second compound 1 µM, first compound 0.949 µM): 105% | viability, T/C (second compound 1 µM, first compound 3 µM): 99.5% | viability, T/C (second compound 3.16 µM, first compound 0.00949 µM): 113% | viability, T/C (second compound 3.16 µM, first compound 0.03 µM): 110% | viability, T/C (second compound 3.16 µM, first compound 0.0949 µM): 107% | viability, T/C (second compound 3.16 µM, first compound 0.3 µM): 106% | viability, T/C (second compound 3.16 µM, first compound 0.949 µM): 104% | viability, T/C (second compound 3.16 µM, first compound 3 µM): 95% | viability, T/C (second compound 10 µM, first compound 0.00949 µM): 103% | viability, T/C (second compound 10 µM, first compound 0.03 µM): 101% | viability, T/C (second compound 10 µM, first compound 0.0949 µM): 93.7% | viability, T/C (second compound 10 µM, first compound 0.3 µM): 86% | viability, T/C (second compound 10 µM, first compound 0.949 µM): 69.4% | viability, T/C (second compound 10 µM, first compound 3 µM): 42.9%

Cn1ncnc1C1c2n[nH]c(=O)c3cc(F)cc(c23)NC1c1ccc(F)cc1 (stereo not given) + NC1CCC(NC2CC2c2ccccc2)CC1
IC50 (second compound 0.1 µM): > 0.1 µM | IC50 (second compound 0.316 µM): > 0.1 µM | IC50 (second compound 1 µM): > 0.1 µM | IC50 (second compound 3.16 µM): > 0.1 µM | IC50 (second compound 10 µM): > 0.1 µM | viability, T/C (second compound 0.1 µM, first compound 0.000316 µM): 102% | viability, T/C (second compound 0.1 µM, first compound 0.001 µM): 97.6% | viability, T/C (second compound 0.1 µM, first compound 0.00316 µM): 101% | viability, T/C (second compound 0.1 µM, first compound 0.01 µM): 101% | viability, T/C [1]: 101% | viability, T/C [2]: 97% | viability, T/C (second compound 0.316 µM, first compound 0.000316 µM): 101% | viability, T/C (second compound 0.316 µM, first compound 0.001 µM): 102% | viability, T/C (second compound 0.316 µM, first compound 0.00316 µM): 102% | viability, T/C (second compound 0.316 µM, first compound 0.01 µM): 99% | viability, T/C [3]: 101% | viability, T/C [4]: 98.9% | viability, T/C (second compound 1 µM, first compound 0.000316 µM): 108% | viability, T/C (second compound 1 µM, first compound 0.001 µM): 102% | viability, T/C (second compound 1 µM, first compound 0.00316 µM): 99.7% | viability, T/C (second compound 1 µM, first compound 0.01 µM): 103% | viability, T/C [5]: 102% | viability, T/C [6]: 101% | viability, T/C (second compound 3.16 µM, first compound 0.000316 µM): 100% | viability, T/C (second compound 3.16 µM, first compound 0.001 µM): 103% | viability, T/C (second compound 3.16 µM, first compound 0.00316 µM): 104% | viability, T/C (second compound 3.16 µM, first compound 0.01 µM): 104% | viability, T/C [7]: 104% | viability, T/C [8]: 101% | viability, T/C (second compound 10 µM, first compound 0.000316 µM): 99.3% | viability, T/C (second compound 10 µM, first compound 0.001 µM): 99.6% | viability, T/C (second compound 10 µM, first compound 0.00316 µM): 101% | viability, T/C (second compound 10 µM, first compound 0.01 µM): 101% | viability, T/C [9]: 98.5% | viability, T/C [10]: 96.1%
